Measurements published in US20090029983A1, “NOVEL HETEROCYCLIC COMPOUNDS HAVING ANTI-HBV ACTIVITY” (priority 2005, published 2009).
pEC50: −log10 of the molar value.

Tested on: HBV
Assay: HBV screening assay (viral DNA in baculovirus-HBV transduced HepG2 cells)
Assay type: cell-based
Conditions: Hepatitis B virus, HepG2, 72 h, read-out: EC50 (antiviral activity), HBV-transduced HepG2 cells, three days with compound, viral DNA by ELISA
Procedure: HepG2 cells were transduced using a baculovirus to deliver the HBV genome essentially as previously described (Delaney et al. in Hepatology 1998; 28: 1134-1146). Transduced cells were cultured in supplemented EMEM media with 10% fetal bovine serum in a 5% CO2 incubator at 37° C. for three days in the presence of test compounds. The cells were lysed in a buffer containing 0.5% NP-40 and […] proteinase K. A solid-phase hybridization was performed to capture the viral DNA and to label the target DNA with Digoxigenin-labeled DNA probes. The viral DNA was detected by ELISA, using horseradish peroxidase-conjugated anti-digoxigenin antibodies.
The EC50 values were determined using ExcelFit software from the inhibition values of a titration curve for each compound. For CC50 determinations, the same titration of compounds was co-cultured with non-transduced HepG2 for three days under the conditions described above. The Promega CellTiter 96 Aqueous One Solution Cell Proliferation Assay was used to measure cell proliferation/viability. The CC50 values were determined using ExcelFit software from the inhibition values of the titration curve for each compound.

`NC(=O)c1sc2nc3c(c(-c4cccs4)c2c1N)CN(Cc1cccnc1)C3` [Compound 20, 3-Amino-6-pyridin-3-ylmethyl-4-thiophen-2-yl-6,7-dihydro-5H-1-thia-6,8-diaza-s-indacene-2-carboxylic acid amide] showed a pEC50 of over 6.00.

`COc1cc(CN2Cc3nc4sc(C(N)=O)c(N)c4c(-c4cccs4)c3C2)cc(OC)c1` [Compound 24, 3-Amino-6-(3,5-dimethoxy-benzyl)-4-thiophen-2-yl-6,7-dihydro-5H-1-thia-6,8-diaza-s-indacene-2-carboxylic acid amide] showed a pEC50 of under 5.00.

`NC(=O)c1sc2nc3c(c(-c4cccs4)c2c1N)CN(CCN1C(=O)c2ccccc2C1=O)C3` [Compound 19, 3-Amino-6-[2-(1,3-dioxo-1,3-dihydro-isoindol-2-yl)-ethyl]-4-thiophen-2-yl-6,7-dihydro-5H-1-thia-6,8-diaza-s-indacene-2-carboxylic acid amide] showed a pEC50 of under 5.00.

`Cc1ccc(CNC(=O)CC2CCc3c2nc2sc(C(N)=O)c(N)c2c3-c2cccs2)o1` (centres unmarked) [Compound 43, 3-Amino-7-{[(5-methyl-furan-2-ylmethyl)-carbamoyl]-methyl}-4-thiophen-2-yl-6,7-dihydro-5H-cyclopenta[b]thieno[3,2-e]pyridine-2-carboxylic acid amide] gave a pEC50 of under 5.00.

Molecule `NC(=O)c1sc2nc3c(c(-c4cccs4)c2c1N)CCC1CCCCC31` (centres unmarked) [Compound 107, 8-Amino-7-thiophen-2-yl-1,2,3,4,4a,5,6,11b-octahydro-10-thia-11-aza-cyclopenta[b]phenanthrene-9-carboxylic acid amide] has a pEC50 of under 5.00.

Molecule `NC(=O)c1sc2nc3c(c(-c4cccs4)c2c1N)CCCC3C1CCCCC1` (centres unmarked) [Compound 68, 3-Amino-8-cyclohexyl-4-thiophen-2-yl-5,6,7,8-tetrahydro-thieno[2,3-b]quinoline-2-carboxylic acid amide] has a pEC50 of under 5.00.

In the case of `Cc1cc(C)cc(NC(=S)N2Cc3nc4sc(C(N)=O)c(N)c4c(-c4cccs4)c3C2)c1` [Compound 92, 3-Amino-6-(3,5-dimethyl-phenylthiopcarbamoyl)-4-thiophen-2-yl-6,7-dihydro-5H-1-thia-6,8-diaza-s-indacene-2-carboxylic acid amide], the pEC50 was under 5.00.

Molecule `Cc1ccc(-c2c3c(nc4sc(C(N)=O)c(N)c24)CCN(Cc2ccccc2)C3)o1` [Compound 33, 3-Amino-6-benzyl-4-(5-methyl-furan-2-yl)-5,6,7,8-tetrahydro-thieno[2,3-b][1,6]naphthyridine-2-carboxylic acidamide] has a pEC50 of under 5.00.

`CNC(=O)CC1CCc2c1nc1sc(C(N)=O)c(N)c1c2-c1cccs1` (centres unmarked) [Compound 42, 3-Amino-7-methylcarbamoylmethyl-4-thiophen-2-yl-6,7-dihydro-5H-cyclopenta[b]thieno[3,2-e]pyridine-2-carboxylic acid amide] was tested, and the pEC50 was 5.00 to 6.00.

`NC(=O)c1sc2nc3c(c(-c4cccs4)c2c1N)CCC3CC(=O)NCCc1ccccn1` (centres unmarked) [Compound 46, 3-Amino-7-[(2-pyridin-2-yl-ethylcarbamoyl)-methyl]-4-thiophen-2-yl-6,7-dihydro-5H-cyclopenta[b]thieno[3,2-e]pyridine-2-carboxylic acid amide] gave a pEC50 of under 5.00.

`NC(=O)c1sc2nc3c(c(-c4cccs4)c2c1N)CCC3CC(=O)NCC(O)c1ccccc1` (centres unmarked) [Compound 39, 3-Amino-7-[(2-hydroxy-2-phenyl-ethylcarbamoyl)-methyl]-4-thiophen-2-yl-6,7-dihydro-5H-cyclopenta[b]thieno[3,2-e]pyridine-2-carboxylic acid amide] was tested, and the pEC50 was under 5.00.

For `NC(=O)c1sc2nc3c(c(-c4cccs4)c2c1N)CN(C(=S)Nc1ccccc1)C3` [Compound 79, 3-Amino-6-phenylthiocarbamoyl-4-thiophen-2-yl-6,7-dihydro-5H-1-thia-6,8-diaza-s-indacene-2-carboxylic acid amide], the pEC50 was under 5.00.

`COc1ccccc1-c1nc(CN2Cc3nc4sc(C(N)=O)c(N)c4c(-c4cccs4)c3C2)no1` [Compound 5, 3-Amino-6-[5-(2-methoxy-phenyl)-[1,2,4]oxadiazol-3-ylmethyl]-4-thiophen-2-yl-6,7-dihydro-5H-1-thia-6,8-diaza-s-indacene-2-carboxylic acid amide] showed a pEC50 of 5.00 to 6.00.

`COc1cccc(C2CCCc3c2nc2sc(C(N)=O)c(N)c2c3-c2cccs2)c1` (centres unmarked) [Compound 67, 3-Amino-8-(3-methoxy-phenyl)-4-thiophen-2-yl-5,6,7,8-tetrahydro-thieno[2,3-b]quinoline-2-carboxylic acid amide] showed a pEC50 of under 5.00.

In the case of `NC(=O)c1sc2nc3c(c(-c4cccs4)c2c1N)CN(C(=O)c1ccc(N2CCOCC2)nc1)C3` [Compound 105, 3-Amino-6-(6-morpholin-4-yl-pyridine-3-carbonyl)-4-thiophen-2-yl-6,7-dihydro-5H-1-thia-6,8-diaza-s-indacene-2-carboxylicacid amide], the pEC50 was under 5.00.

Work on `NC(=O)c1sc2nc3c(c(-c4cccs4)c2c1N)CN(CCCN1CCOCC1)C3` [Compound 27, 3-Amino-6-(3-morpholin-4-yl-propyl)-4-thiophen-2-yl-6,7-dihydro-5H-1-thia-6,8-diaza-s-indacene-2-carboxylic acid amide] yielded a pEC50 of under 5.00.

`Cc1ccc(NC(=S)N2Cc3nc4sc(C(N)=O)c(N)c4c(-c4cccs4)c3C2)cc1` [Compound 83, 3-Amino-4-thiophen-2-yl-6-p-tolylthiocarbamoyl-6,7-dihydro-5H-1-thia-6,8-diaza-s-indacene-2-carboxylic acidamide] showed a pEC50 of under 5.00.

Molecule `NC(=O)c1sc2nc3c(c(-c4cccs4)c2c1N)C(=O)CCC3` [Compound 76, 3-Amino-4-(thiophen-2-yl)-5-oxo-5,6,7,8-tetrahydro-thieno[2,3-b]quinoline-2-carboxylic acid amide] has a pEC50 of 5.00 to 6.00.

`NC(=O)c1sc2nc3c(c(-c4cccs4)c2c1N)CCC3CC(=O)NCc1ccccn1` (centres unmarked) [Compound 45, 3-Amino-7-{[(pyridin-2-ylmethyl)-carbamoyl]-methyl}-4-thiophen-2-yl-6,7-dihydro-5H-cyclopenta[b]thieno[3,2-e]pyridine-2-carboxylic acid amide] showed a pEC50 of under 5.00.

Work on `CCCCCN1Cc2nc3sc(C(N)=O)c(N)c3c(-c3cccs3)c2C1` [Compound 16, 3-Amino-6-pentyl-4-thiophen-2-yl-6,7-dihydro-5H-1-thia-6,8-diaza-s-indacene-2-carboxylic acid amide] yielded a pEC50 of under 5.00.

Molecule `NC(=O)c1sc2nc3c(c(-c4cccs4)c2c1N)CCC3CC(=O)NCc1ccc(C(F)(F)F)cc1` (centres unmarked) [Compound 47, 3-Amino-4-thiophen-2-yl-7-[(4-trifluoromethyl-benzylcarbamoyl)-methyl]-6,7-dihydro-5H-cyclopenta[b]thieno[3,2-e]pyridine-2-carboxylic acid amide] has a pEC50 of under 5.00.

Molecule `NC(=O)c1sc2nc3c(c(-c4cccs4)c2c1N)CN(Cc1cccc(F)c1)C3` [Compound 23, 3-Amino-6-(3-fluoro-benzyl)-4-thipohen-2-yl-6,7-dihydro-5H-1-thia-6,8-diaza-s-indacene-2-carboxylic acid amide] has a pEC50 of under 5.00.

`CC(C)CCNC(=O)CC1CCc2c1nc1sc(C(N)=O)c(N)c1c2-c1cccs1` (centres unmarked) [Compound 48, 3-Amino-7-[(3-methyl-butylcarbamoyl)-methyl]-4-thiophen-2-yl-6,7-dihydro-5H-cyclopenta[b]thieno[3,2-e]pyridine-2-carboxylic acid amide] was tested, and the pEC50 was under 5.00.
